“And” between values parts separate entries of the source, which are not always exact repeats. Equal values may be shown once.
How the values were obtained:
M2 WT = conditions: read-out: apparent Ki; block of M2 WT; cited from earlier work
[1] = biological target: T1, full-length A/Udorn/72 M2 WT (Influenza A virus, UniProt P0DOF5); conditions: 100 μM, mean ± SEM at 2 min of drug perfusion; ref [3]; cited from earlier work
A/WSN/33 = conditions: plaque reduction assay; cited from earlier work
[2] = biological target: T1, full-length A/Udorn/72 M2 WT

T1 sequence (P0DOF5 whole entry, the tested form may be a part): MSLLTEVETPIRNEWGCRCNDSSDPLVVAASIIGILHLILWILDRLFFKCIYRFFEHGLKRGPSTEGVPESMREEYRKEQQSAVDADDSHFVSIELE

Structure (SMILES): NC12CC3CC(CC(C3)C1)C2 [Amantadine, amantadine]
- Ki (M2 WT): 300 nM

Structure (SMILES): c1csc(-c2cc(CNC34CC5CC(CC(C5)C3)C4)on2)c1 [Compound 6]
- Percent Block (%) [1]: 11% and 11 ± 1^g %
- EC50 (A/WSN/33): ~100 nM
- Kd ([2]; calculated from the ratio koff/kon): > 100000 nM
- koff ([2]; inferred from extent of block and perfusion-limited block rate): > 1 s⁻¹

— paper PMC8051587 (ACS chemical biology, 2020)
